This note sets out measurements from patent US20260376293A1, “METHODS FOR STUDYING GPR158 PHARMACOLOGY AND IDENTIFICATION OF ITS LIGANDS” (UNIVERSITY OF FLORIDA RESEARCH FOUNDATION, INCORPORATED, priority 2022, published 2026).

This assay has as its system layer II-III pyramidal neurons. Nature of the assay: Whole cell recordings, layer II-III prelimbic cortex neurons, WT mice. Type of assay: cell-based, mouse. As to conditions: 1 mM. How it is done:
FIGS. 14A-14H. Effect of glycine on neuronal excitability. A) Schematic of the electrophysiological recordings in slice preparation targeting mPFC neurons of layer II-III. Experiments were conducted with a cocktail of synaptic blockers: picrotoxin (100 μM) (blockade of GABAA receptor chloride channels), strychnine (1 μM) (antagonist of glycine and acetylcholine ionotropic receptors), CNQX (20 μM) (AMPA receptors antagonist), and APV (50 μM) (NMDAR antagonist). B) Representative traces of voltage responses to a 200 pA current ramp injection under control conditions and after bath application of glycine (1 mM) in WT mice. C) Quantification of changes in excitability by number of action potentials fired in response to 200 pA current ramp (n=8 neurons from 5 mice). Nonparametric t-test; Wilcoxon test, **p<0.01. D) Quantification of changes in excitability by rheobase current under control condition and glycine application (n=8 neurons from 5 mice). Nonparametric t-test; Wilcoxon test, **p<0.01. E) Representative traces of voltage responses to a 200 pA current ramp injection obtained from layer II-III pyramidal neurons in GPR158 KO mice under control conditions and during bath application of glycine (1 mM). F) Quantification of changes in excitability by number of action potentials fired in response to 200 pA current ramp (n=4 neurons/3 mice). Nonparametric t-test; Wilcoxon test, ns=p>0.05. G) Quantification of changes in excitability by rheobase current under control condition and glycine application (n=4 neurons/3 mice). Nonparametric t-test; Wilcoxon test, ns=p>0.05. H) Schematic representation of the proposed mechanism of glycine effects on mGlyR. In 14C, 14D, 14F, and 14G, solid circles (Ctrl), circles with no fill (Glycine), columns with no fill (Ctrl), and columns with dotted fill (Glycine).
FIGS. 15A-15H. Effect of glycine and taurine on excitability of layer V neurons and membrane properties of layer II/III neurons in wild type and GPR158 knockout mice. A) Representative traces of voltage responses to a 200 pA current ramp injection obtained from layer V pyramidal neurons in WT mice under control conditions and during bath application of glycine (1 mM). B) Quantification of glycine effects on neuronal excitability by number of action potentials fired in response to 200 pA current ramp under control condition and glycine application (n=4 neurons/3 mice). Nonparametric t-test; Wilcoxon test, ns=p>0.05. C) Quantification of glycine effects on neuronal excitability by rheobase current under control condition and glycine application (n=4 neurons/3 mice). Nonparametric t-test; Wilcoxon test, ns=p>0.05. D) Resting membrane potential of layer V pyramidal neurons in WT mice under control conditions and during bath application of glycine (n=4 neurons/3 mice). […]

[1] abbreviates: 200 pA current ramp, synaptic blockers.

With `NCC(=O)O` [glycine], the resting membrane potential result is “without changes in the resting membrane potential”. Also, under setting [1], the “number of action potentials fired” value was “significantly increased the number of action potentials” and the rheobase current entry is recorded as “decreasing the amount of current necessary to elicit the first action potential”.

`NCCS(=O)(=O)O` [taurine, 2-aminoethanesulfonic acid]: under setting [1], the rheobase current result is on record as “ns”.
